Laboratory results reported in paper PMC9079742, “Branched copolymer-stabilised nanoemulsions as new candidate oral drug delivery systems” (RSC Advances, 2018).
≈ marks a conversion by molar mass, not a printed value.

Tests used:
[1] = Drug solubility in natural oils; format: physicochemical; settings: oil or lipid
Caco-2 monolayers = experiment: Caco-2 transcellular permeation model (transwell); format: in vitro ADME, human
Procedure: (§1) The apparent permeability (Papp) of the candidate drug-loaded nanoemulsions were determined using the Caco-2 cells after forming a confluent monolayer, with tight junctions between the cells (confirmed by TEER), on a porous transwell membrane; this is a widely-used model for oral absorption.[34] Within this assay, the cells polarise to present microvilli on the gut (apical; A) side of the cells,[35] reproducing the morphology and function of the small intestine. The blood (basolateral; B) side of the cells models the interface with the systemic circulation. […]
(§2) droplets were below 300 nm in diameter.
(§3) During the 2 minutes, the vial was […]
(§4) to achieve a creamy emulsion. […]
(§5) Caco-2 Transcellular Permeation Model
(§6) After this time, culture media was […]
(§7) and immediately frozen at -40°C for subsequent batch analysis via HPLC. Sink conditions were determined as being satisfied when <10% of starting concentration had permeated. Papp was determined with the following equation: […]
(§8) Where A is the concentration in the sample, T is the time in seconds at which the sample was collected, V is the total volume of sample contained in the chamber being sampled, S is the initial starting concentration of the drug and 0.3 is the surface area in cm2 of the transwell insert on which the Caco-2 […]
(§9) High Performance Liquid Chromatography
(§10) 200 μL of sample (thawed from -40°C storage) was added to 1 ml of HPLC grade acetonitrile in a universal tube and vortexed for 30 seconds. The universal tubes where then centrifuged for 5 minutes at 4°C at 13,300 rpm, after which the supernatant was transferred to fresh glass tubes. These tubes were placed in a vacuum centrifuge drier and heated to 35°C to remove excess acetonitrile and dry down the sample to a pellet. Pellets were then re-suspended in 200 μL fresh 20% HPLC grade acetonitrile, 80% HPLC grade water, and transferred to 1.8 ml HPLC vials and sealed for HPLC analysis.
(§11) The mobile phase (C) consisted of 95% water and 5% acetonitrile, with 5mM final concentration of ammonium formate. The elution buffer (D) consisted of 90% acetonitrile and 10% water with no ammonium formate. A calibration curve was produced using a 1:2 dilution from 20,000 ng/ml to 39 ng/ml, with separate quality control samples at 600 ng/ml, 3000 ng/ml and 15,000 ng/ml. The initial starting conditions of each run were 100% C, changing to 92% D / 8% C after 30 seconds, holding at this percentage for 5 minutes before raising to 100% D for 1 minute. The final 2 minutes of the run returned the column to 100% of C, ready for the injection of the next sample. The EFV was eluted at around 4.3 minutes into the run. The lower limit of quantification was 78 ng/mL, with intraday variability <20% and inter day variability <15%. […]
(§12) Plates were incubated for 5 days at 37°C and 5%
(§13) CO2. Activity of both aqueous and nanoformulations against HIV-1 IIIB was determined by quantifying the amount of live cells in each condition by means of an MTT cell viability assay. Concentrations of […]
(§14) was due solely to HIV infection.

[2] = Caco-2 transcellular permeation model (transwell); format: in vitro ADME, human; settings: human, Caco-2; for Papp A→B at 2 h, 10 μM / Papp B→A at 2 h, 10 μM: aq/DMSO solution or castor oil nanoemulsion, N=4
Procedure: as §1, §2, §3, §4, §5, §6, §7, §8, §9, §10, §11, §12, §13, §14

HIV-1 IIIB = experiment: Antiviral activity assay (MTT viability of infected MT4 cells); format: cell-based; settings: Human immunodeficiency virus 1, 120 h, HIV-1 IIIB-infected MT4 cells, 5 days incubation, N = 4
Text: The potential ability to enhance the oral permeability of the antiretroviral drugs LPV and EFV may lead to increased drug absorption and a subsequent decrease in oral dose required to treat HIV patients. Drug permeation through the gut model employed here provides no information about whether free drug or intact nanoemulsions have traversed the epithelium. The potential for nanoemulsions entering the systemic circulation after in vivo absorption necessitates assessment of antiviral activity of the ARV-containing droplets and this was undertaken using HIV-1 IIIB-infected MT4 cells. […] Activity against the virus was determined by using an MTT cell viability assay to assess the number of live cells as viral replication leads to cell death.
Fig. 4 Antiviral activity of aqueous (circles) and nanoemulsion (triangles) formulations containing (A) EFV; and (B) LPV after 5 days incubation with MT4 cells and HIV-1 IIIB. Viral kill was derived by using MTT assay to quantify the metabolic activity of the MT4 cells, using this a proxy of cellular viability. […] Data expressed as ± SEM, N = 4. […]
as §7

MTT cytotoxicity assay = format: cell-based; settings: human, Caco-2 cells, aqueous/DMSO solution

| Permeation in emulsion form relative to control within aqueous DMSO vehicle (Caco-2 monolayers; human, Caco-2, 2 h, 10 μM) | Structure (SMILES) | solubility ([1]; in castor oil) | solubility ([1]; in peanut oil) | solubility ([1]; in soybean oil) | efflux ratio at 1 h [2] | efflux ratio at 2 h [2] | Papp A→B at 2 h, 10 μM [2] | Papp B→A at 2 h, 10 μM [2] | IC50 (HIV-1 IIIB) | Difference in permeation, emulsion form versus aqueous DMSO control (Caco-2 monolayers; Caco-2) | CC50 (MTT cytotoxicity assay) |
| --- | --- | --- | --- | --- | --- | --- | --- | --- | --- | --- | --- |
| approximately 10 fold | Cc1cccc(C)c1OCC(=O)N[C@@H](Cc1ccccc1)[C@@H](O)C[C@H](Cc1ccccc1)NC(=O)[C@H](C(C)C)N1CCCNC1=O [LPV, lopinavir] | ~25 mg/mL (≈ 39.8 mM) | < 12 mg/mL | < 12 mg/mL | 1.11 | 4.78 | 27 nm/s | 129 nm/s | 0.46 µM | – | – |
| – | O=C1Nc2ccc(Cl)cc2[C@@](C#CC2CC2)(C(F)(F)F)O1 [EFV, efavirenz] | ≥ 50 mg/mL | ≥ 50 mg/mL | ≥ 50 mg/mL | 3.98 | 3.11 | 82.1 nm/s | 255 nm/s | ~1.25 µM | very limited difference | 55 µM |
